In brackets after ≈: the same amount, converted by molar mass. Where two headings read alike, the source gives them in different places.
What was measured:
[1] = tested on: Mycobacterium tuberculosis H37Rv; assay: Mycobacterium tuberculosis H37Rv Inhibition Assay (Whole Cell Assay); format: cell-based; conditions: ATCC 25618 / H37Rv, H37Rv strain (ATCC25618), Middlebrook 7H9, six days at 37° C., resazurin fluorescence after 48 hours
[2] = molecular target: T1, Mycobacterium tuberculosis InhA (Mycobacterium tuberculosis, UniProt P9WGR1); assay: Mycobacterium tuberculosis InhA Inhibition Assay (Enzyme Assay); format: biochemical; conditions: 5 nM InhA, 50 μM DDCoA, 50 μM NADH, PIPES buffer pH 6.8, initial velocities of NADH consumption
T1 construct: made in house; host or cells: E. coli
Experimental: Mycobacterium tuberculosis InhA Inhibition Assay (Enzyme Assay)
InhA is able to reduce 2-trans enoyl-CoA esters with concomitant oxidation of NADH to NAD^+. The assay format is based on the kinetic detection of NADH consumption.
Assay for InhA inhibition is carried out with mycobacterium recombinant protein expressed and purified form E. coli. Standard assay conditions for the determination of kinetic constants and inhibitors activity use 5 nM of InhA, 50 μM of Dodecenoyl-CoA synthesized and purified as described by Quernard et al (DDCoA) and 50 μM of NADH as substrates, and it is carried out in 30 mM PIPES buffer pH 6.8, containing 0.05% of BSA. […] Triclosan is used as positive control in every experiment. One μl of compounds is added to the wells containing 25 μl of the DDCoA+NADH mix, the reaction is started by adding 50 μl of the enzyme solution. Fluorescence from NADH is followed at room temperature during 20 minutes in a fluorescent plate reader (excitation at 340 nm; emission at 480 nm). IC50 values are determined using initial velocities of NADH consumption.
Quernard A, Sacchettini J C, Dessen A, et al. Enzymatic characterization of the target for isoniazid in Mycobacterium tuberculosis. Biochemistry 1995; 34:8235-41.

T1 sequence (P9WGR1 whole entry, looked up): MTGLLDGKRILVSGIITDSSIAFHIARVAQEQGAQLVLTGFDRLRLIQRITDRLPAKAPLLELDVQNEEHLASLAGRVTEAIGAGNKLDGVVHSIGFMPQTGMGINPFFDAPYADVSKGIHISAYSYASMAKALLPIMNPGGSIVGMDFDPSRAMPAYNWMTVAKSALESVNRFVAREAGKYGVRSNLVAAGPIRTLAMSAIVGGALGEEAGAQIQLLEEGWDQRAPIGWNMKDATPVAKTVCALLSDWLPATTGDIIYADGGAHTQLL

Compound | MIC [1] [µM] | IC50 ([2]; IC50 value) [nM] | IC50 ([2]; read-out: IC50 value) [nM]
Cc1cc(C)n(C(C)c2nnc(Nc3ccn(Cc4ccc(F)cc4Cl)n3)s2)n1 (stereo not drawn) [Example 17, N-{1-[(2-chloro-4-fluorophenyl)methyl]-1H-pyrazol-3-yl}-5-[1-(3,5-dimethyl-1H-pyrazol-1-yl)ethyl]-1,3,4-thiadiazol-2-amine] | > 10 | 116 to 232 | 
Cc1ccn(C(C)c2nnc(Nc3ccn(Cc4ccc(F)cc4Cl)n3)s2)n1 (stereo not drawn) [Example 18, N-{1-[(2-chloro-4-fluorophenyl)methyl]-1H-pyrazol-3-yl}-5-[1-(3-methyl-1H-pyrazol-1-yl)ethyl]-1,3,4-thiadiazol-2-amine] | > 10 | 120 to 239 | 
Cc1cc(C)n(C(C)c2nnc(Nc3cc(C)n(Cc4c(F)cccc4Cl)n3)s2)n1 (stereo not drawn) [Example 19, N-{1-[(2-chloro-6-fluorophenyl)methyl]-5-methyl-1H-pyrazol-3-yl}-5-[1-(3,5-dimethyl-1H-pyrazol-1-yl)ethyl]-1,3,4-thiadiazol-2-amine] | 1 to 4 (≈ 0.446 to 1.78 µg/mL) |  | < 112
Cc1cc(C)n(C(C)c2nnc(Nc3ccn(Cc4ccccc4C)n3)s2)n1 (stereo not drawn) [Example 20, 5-[1-(3,5-dimethyl-1H-pyrazol-1-yl)ethyl]-N-{1-[(2-methylphenyl)methyl]-1H-pyrazol-3-yl}-1,3,4-thiadiazol-2-amine] | 1 to 4 (≈ 0.394 to 1.57 µg/mL) |  | < 127
Cc1cc(C)n(C(C)c2nnc(Nc3ccn(Cc4ccccc4)n3)s2)n1 (stereo not drawn) [Example 21, 5-[1-(3,5-dimethyl-1H-pyrazol-1-yl)ethyl]-N-[1-(phenylmethyl)-1H-pyrazol-3-yl]-1,3,4-thiadiazol-2-amine] | 4 to 10 (≈ 1.52 to 3.79 µg/mL) |  | < 132
Cc1cc(C)n(C(C)c2nnc(Nc3ccn(Cc4c(Cl)ccc(C)c4F)n3)s2)n1 (stereo not drawn) [Example 22, N-{1-[(6-chloro-2-fluoro-3-methylphenyl)methyl]-1H-pyrazol-3-yl}-5-[1-(3,5-dimethyl-1H-pyrazol-1-yl)ethyl]-1,3,4-thiadiazol-2-amine] | 1 to 4 (≈ 0.446 to 1.78 µg/mL) |  | < 112
Cc1cc(C)n(C(C)c2nnc(Nc3ccn(Cc4c(F)ccc(C)c4Cl)n3)s2)n1 (stereo not drawn) [Example 23, N-{1-[(2-chloro-6-fluoro-3-methylphenyl)methyl]-1H-pyrazol-3-yl}-5-[1-(3,5-dimethyl-1H-pyrazol-1-yl)ethyl]-1,3,4-thiadiazol-2-amine] | ≤ 1 |  | < 112
Cc1cc(C)n(C(C)c2nnc(Nc3ccn(Cc4cccc(C)c4F)n3)s2)n1 (stereo not drawn) [Example 24, 5-[1-(3,5-dimethyl-1H-pyrazol-1-yl)ethyl]-N-{1-[(2-fluoro-3-methylphenyl)methyl]-1H-pyrazol-3-yl}-1,3,4-thiadiazol-2-amine] | ≤ 1 |  | < 122
Cc1csc(C(C)c2nnc(Nc3ccn(Cc4cccc(C)c4F)n3)s2)n1 (stereo not drawn) [Example 25, N-{1-[(2-fluoro-3-methylphenyl)methyl]-1H-pyrazol-3-yl}-5-[1-(4-methyl-1,3-thiazol-2-yl)ethyl]-1,3,4-thiadiazol-2-amine] | 1 to 4 (≈ 0.415 to 1.66 µg/mL) |  | < 121
Cc1cc(C)n(C(C)c2nnc(Nc3ccn(Cc4cc(N)ccc4Cl)n3)s2)n1 (stereo not drawn) [Example 26, N-{1-[(5-amino-2-chlorophenyl)methyl]-1H-pyrazol-3-yl}-5-[1-(3,5-dimethyl-1H-pyrazol-1-yl)ethyl]-1,3,4-thiadiazol-2-amine] | > 10 |  | < 117
Cc1cc(C)n(C(C)c2nnc(Nc3ccn(Cc4cccc(N)c4C)n3)s2)n1 (stereo not drawn) [Example 27, N-{1-[(3-amino-2-methylphenyl)methyl]-1H-pyrazol-3-yl}-5-[1-(3,5-dimethyl-1H-pyrazol-1-yl)ethyl]-1,3,4-thiadiazol-2-amine] | 4 to 10 (≈ 1.63 to 4.09 µg/mL) |  | < 122
Cc1csc(C(C)c2nnc(Nc3ccn(Cc4c(F)cccc4Cl)n3)s2)n1 (stereo not drawn) [Example 29, N-{1-[(2-chloro-6-fluorophenyl)methyl]-1H-pyrazol-3-yl}-5-[1-(4-methyl-1,3-thiazol-2-yl)ethyl]-1,3,4-thiadiazol-2-amine] | 1 to 4 (≈ 0.435 to 1.74 µg/mL) |  | < 115
CC(c1nc(C(F)(F)F)cs1)c1nnc(Nc2ccn(Cc3c(F)cccc3Cl)n2)s1 (stereo not drawn) [Example 31, N-{1-[(2-chloro-6-fluorophenyl)methyl]-1H-pyrazol-3-yl}-5-{1-[4-(trifluoromethyl)-1,3-thiazol-2-yl]ethyl}-1,3,4-thiadiazol-2-amine] | > 10 |  | < 102
Cc1csc(Cc2nnc(Nc3ccn(Cc4c(F)cccc4Cl)n3)s2)n1 [Example 32, N-{1-[(2-chloro-6-fluorophenyl)methyl]-1H-pyrazol-3-yl}-5-[(4-methyl-1,3-thiazol-2-yl)methyl]-1,3,4-thiadiazol-2-amine] | 4 to 10 (≈ 1.68 to 4.21 µg/mL) |  | < 119
Cc1csc(C(C)c2nnc(Nc3ccn(Cc4cccc(Cl)c4F)n3)s2)n1 (stereo not drawn) [Example 33, N-{1-[(3-chloro-2-fluorophenyl)methyl]-1H-pyrazol-3-yl}-5-[1-(4-methyl-1,3-thiazol-2-yl)ethyl]-1,3,4-thiadiazol-2-amine] | 1 to 4 (≈ 0.435 to 1.74 µg/mL) |  | < 115
Cc1cc(C)n(C(C)c2nnc(Nc3ccn(Cc4ccc(Cl)cc4)n3)s2)n1 (stereo not drawn) [Example 34, N-{1-[(4-chlorophenyl)methyl]-1H-pyrazol-3-yl}-5-[1-(3,5-dimethyl-1H-pyrazol-1-yl)ethyl]-1,3,4-thiadiazol-2-amine] | 4 to 10 (≈ 1.66 to 4.14 µg/mL) | 121 to 242 | 
Cc1cc(C)n(C(C)c2nnc(Nc3ccn(Cc4ccc(C(F)(F)F)cc4)n3)s2)n1 (stereo not drawn) [Example 35, 5-[1-(3,5-dimethyl-1H-pyrazol-1-yl)ethyl]-N-(1-{[4-(trifluoromethyl)phenyl]methyl}-1H-pyrazol-3-yl)-1,3,4-thiadiazol-2-amine] | > 10 | 223 to 1120 | 
Cc1cc(C)n(C(C)c2nnc(Nc3ccn(Cc4cc(F)ccc4Cl)n3)s2)n1 (stereo not drawn) [Example 36, N-{1-[(2-chloro-5-fluorophenyl)methyl]-1H-pyrazol-3-yl}-5-[1-(3,5-dimethyl-1H-pyrazol-1-yl)ethyl]-1,3,4-thiadiazol-2-amine] | 4 to 10 (≈ 1.73 to 4.32 µg/mL) |  | < 116
Cc1cc(C)n(Cc2cnc(Nc3ccn(Cc4c(F)cccc4Cl)n3)s2)n1 [Example 37, N-{1-[(2-chloro-6-fluorophenyl)methyl]-1H-pyrazol-3-yl}-5-[(3,5-dimethyl-1H-pyrazol-1-yl)methyl]-1,3-thiazol-2-amine] | 4 to 10 (≈ 1.67 to 4.17 µg/mL) |  | < 120
Cc1ccn(Cc2nnc(Nc3ccn(Cc4c(F)cccc4Cl)n3)s2)n1 [Example 39, N-{1-[(2-chloro-6-fluorophenyl)methyl]-1H-pyrazol-3-yl}-5-[(3-methyl-1H-pyrazol-1-yl)methyl]-1,3,4-thiadiazol-2-amine] | 1 to 4 (≈ 0.404 to 1.62 µg/mL) |  | < 124
Cc1cc([N+](=O)[O-])nn1C(C)c1nnc(Nc2ccn(Cc3ccccc3Cl)n2)s1 (stereo not drawn) [Example 40, N-{1-[(2-chlorophenyl)methyl]-1H-pyrazol-3-yl}-5-[1-(5-methyl-3-nitro-1H-pyrazol-1-yl)ethyl]-1,3,4-thiadiazol-2-amine] | 1 to 4 (≈ 0.445 to 1.78 µg/mL) |  | < 112
Cc1cc(C(F)F)nn1C(C)c1nnc(Nc2ccn(Cc3ccccc3Cl)n2)s1 (stereo not drawn) [Example 41, N-{1-[(2-chlorophenyl)methyl]-1H-pyrazol-3-yl}-5-{1-[3-(difluoromethyl)-5-methyl-1H-pyrazol-1-yl]ethyl}-1,3,4-thiadiazol-2-amine] | 4 to 10 (≈ 1.8 to 4.5 µg/mL) |  | < 111
Cc1ccn(C(C)c2nnc(Nc3ccn(Cc4ccccc4Cl)n3)s2)n1 (stereo not drawn) [Example 42, N-{1-[(2-chlorophenyl)methyl]-1H-pyrazol-3-yl}-5-[1-(3-methyl-1H-pyrazol-1-yl)ethyl]-1,3,4-thiadiazol-2-amine] | 1 to 4 (≈ 0.4 to 1.6 µg/mL) |  | < 125
Cc1cc(C(F)F)nn1C(C)c1nnc(Nc2ccn(Cc3ccccc3)n2)s1 (stereo not drawn) [Example 43, 5-{1-[3-(difluoromethyl)-5-methyl-1H-pyrazol-1-yl]ethyl}-N-[1-(phenylmethyl)-1H-pyrazol-3-yl]-1,3,4-thiadiazol-2-amine] | 4 to 10 (≈ 1.66 to 4.15 µg/mL) |  | < 120
Cc1ccn(C(C)c2nnc(Nc3ccn(Cc4ccccc4)n3)s2)n1 (stereo not drawn) [Example 44, 5-[1-(3-methyl-1H-pyrazol-1-yl)ethyl]-N-[1-(phenylmethyl)-1H-pyrazol-3-yl]-1,3,4-thiadiazol-2-amine] | 1 to 4 (≈ 0.365 to 1.46 µg/mL) | 137 to 274 | 
Cc1cc(C(F)F)nn1Cc1nnc(Nc2ccn(Cc3ccccc3)n2)s1 [Example 45, 5-{[3-(difluoromethyl)-5-methyl-1H-pyrazol-1-yl]methyl}-N-[1-(phenylmethyl)-1H-pyrazol-3-yl]-1,3,4-thiadiazol-2-amine] | > 10 | 125 to 249 | 
Cc1cc(C(F)F)nn1Cc1nnc(Nc2ccn(Cc3ccccc3Cl)n2)s1 [Example 46, N-{1-[(2-chlorophenyl)methyl]-1H-pyrazol-3-yl}-5-{[3-(difluoromethyl)-5-methyl-1H-pyrazol-1-yl]methyl}-1,3,4-thiadiazol-2-amine] | > 10 | < 115 | 

Source: patent US8524750B2, “(Pyrazol-3-yl)-1,3,4-thiadiazol-2-amine and (pyrazol-3-yl)-1,3,4-thiazol-2-amine compounds” (Glaxo Group Limited, priority 2009, dated 2013)
